Laboratory results reported in patent publication US20240327415A1, “Multicomponent Complexes, Including Salts, Crystalline Forms, and Hydrates and Solvates of ENT1 Inhibitors” (iTeos Belgium SA, priority 2023, published 2024).

How the values were obtained:
[1] = salt screen, XRPD of damp, dried and 40° C./75% RH stored samples (Salt Preparation Methods 1 and 2); format: physicochemical; set-up: key: A = amorphous; Evap. = isolated via evaporation
Method: (§1) Salt Preparation Method 1: Approximately 25 mg of Compound 1 (free base) was weighed out into 1.5 mL screw-cap vials and a stirrer bar was added. For solid counterions, the appropriate amount of acid (1.0 or 2.0 equiv.) was weighed into separate 1.5 mL screw-cap vials. 100 μL of the appropriate solvent system was added to both the Compound 1 and the solid counterions. Stock solutions of liquid counterions were prepared, such that 100 μL contained 1.0 or 2.0 equiv. of acid. See counterion and solvent lists in Table 60 and Table 61 respectively.
(§2) The samples were stirred at 40° C. for 5-10 min and then the acid solutions were added to Compound 1, rinsing out the transfer vial with a further 50 μL of solvent. […] Experiments were temperature cycled between 40° C. and 5° C. (1 h hold; 0.1° C./min ramp/cool) for ca. 24-68 h. Anti-solvent addition (ASA) was carried out to slurries at 5° C. then experiments were heated to 30° C. over 1 h. ASA was carried out at 30° C. or 40° C. where clear solutions or gums were observed.
(§3) Temperature cycling was then continued for ca. 16-69 h, followed by further ASA and temperature cycling if required. Material was isolated at 5° C. and analyzed damp by XRPD. All isolated material was dried under vacuum at ca. 40° C. for ca. 17-91 h then re-analyzed by XRPD. The XRPD plate was stored at 40° C./75% RH for 24-48 h and then samples re-analyzed. Solutions were stored uncapped at ambient temperature to evaporate. Any residual solids were analyzed by XRPD.
(§4) Salt Preparation Method 2: The general procedure adopted in preparing the potential salts is outlined below. A known mass of Compound 1 (free base) and a known volume of the appropriate solvent system were added to 20 mL scintillation vials. The required mol. equiv. of the appropriate counterions were added to the vials as solutions or slurries in the corresponding solvent system.
(§5) The experiments were stirred at 40° C. for ca. 1 h, and then temperature cycled between 40° C. and 5° C. with 0.1° C./min ramp and 1 h hold between each step. Anti-solvent additions and subsequent slurrying at 5° C. were employed in order to facilitate crystallization. […] The damp and dried solids were subsampled and analyzed by XRPD. Where applicable, the dried solids were stored at 40° C./75% RH for 24-48 h in order to improve the crystallinity and/or facilitate solid form conversion to the desired form.

[2] = as above; format: physicochemical; set-up: key to XRPD Analysis Damp/Dry: A = amorphous; Evap. = isolated via evaporation; details: for XRPD Analysis Damp/Dry: (evap.); for XRPD Analysis Damp / XRPD Analysis Dry: Ethyl acetate
Method: as §1, §2, §3, §4, §5

[3] = Benzenesulfonic acid, 1 equiv., Acetonitrile, AS tBME
[4] = Benzenesulfonic acid, 1 equiv., Ethanol, AS Heptane
[5] = Benzenesulfonic acid, 1 equiv., Ethyl acetate, AS Heptane
[6] = Benzenesulfonic acid, 1 equiv., IPA:H2O (75:25% v/v), AS tBME
[7] = Benzenesulfonic acid, 1 equiv., MEK, AS Heptane
[8] = Benzenesulfonic acid, 1 equiv., THF, AS Heptane
[9] = Citric acid, 1 equiv., Acetonitrile, AS tBME
[10] = Citric acid, 1 equiv., Ethanol, AS Heptane
[11] = Citric acid, 1 equiv., IPA:H2O (75:25% v/v), AS tBME
[12] = Citric acid, 1 equiv., MEK, AS Heptane
[13] = Citric acid, 1 equiv., THF, AS Heptane
[14] = Citric acid, 1 equiv., AS Heptane
[15] = L-Tartaric acid, 1 equiv., Acetonitrile, AS tBME
[16] = L-Tartaric acid, 1 equiv., Ethanol, AS Heptane
[17] = L-Tartaric acid, 1 equiv., IPA:H2O (75:25% v/v), AS tBME
[18] = L-Tartaric acid, 1 equiv., MEK, AS Heptane
[19] = L-Tartaric acid, 1 equiv., THF, AS Heptane
[20] = L-Tartaric acid, 1 equiv., AS Heptane
[21] = Maleic acid, 1 equiv., Acetonitrile, AS tBME
[22] = Maleic acid, 1 equiv., Ethanol, AS Heptane
[23] = Maleic acid, 1 equiv., Ethyl acetate, AS Heptane
[24] = Maleic acid, 1 equiv., IPA:H2O (75:25% v/v), AS tBME
[25] = Maleic acid, 1 equiv., MEK, AS Heptane
[26] = Maleic acid, 1 equiv., THF, AS Heptane
[27] = Methanesulfonic acid, 1 equiv., Acetonitrile, AS tBME
[28] = Methanesulfonic acid, 1 equiv., Ethanol, AS Heptane
[29] = Methanesulfonic acid, 1 equiv., Ethyl acetate, AS Heptane
[30] = Methanesulfonic acid, 1 equiv., IPA:H2O (75:25% v/v), AS tBME
[31] = Methanesulfonic acid, 1 equiv., MEK, AS Heptane
[32] = Methanesulfonic acid, 1 equiv., THF, AS Heptane
[33] = Methanesulfonic acid, 2 equiv., Acetonitrile, AS tBME
[34] = Methanesulfonic acid, 2 equiv., Ethanol, AS Heptane
[35] = Methanesulfonic acid, 2 equiv., Ethyl acetate, AS Heptane
[36] = Methanesulfonic acid, 2 equiv., IPA:H2O (75:25% v/v), AS tBME
[37] = Methanesulfonic acid, 2 equiv., MEK, AS Heptane
[38] = Methanesulfonic acid, 2 equiv., THF, AS Heptane
[39] = p-Toluenesulfonic acid, 1 equiv., Acetonitrile, AS tBME
[40] = p-Toluenesulfonic acid, 1 equiv., Ethanol, AS Heptane
[41] = p-Toluenesulfonic acid, 1 equiv., Ethyl acetate, AS Heptane
[42] = p-Toluenesulfonic acid, 1 equiv., IPA:H2O (75:25% v/v), AS tBME
[43] = p-Toluenesulfonic acid, 1 equiv., MEK, AS Heptane
[44] = p-Toluenesulfonic acid, 1 equiv., THF, AS Heptane

O=S(=O)(O)c1ccccc1 [Benzenesulfonic acid, 1 equiv.]
A: XRPD Analysis 40° C. 75% RH [1, 3] | XRPD Analysis Damp [1, 3] | XRPD Analysis Dry [1, 3] | XRPD Analysis 40° C. 75% RH [1, 4] | XRPD Analysis Damp [1, 4] | XRPD Analysis Dry [1, 4] | XRPD Analysis 40° C. 75% RH [1, 5] | XRPD Analysis Damp [1, 5] | XRPD Analysis Dry [1, 5] | XRPD Analysis 40° C. 75% RH [1, 6] | XRPD Analysis 40° C. 75% RH [1, 7] | XRPD Analysis Damp [1, 7] | XRPD Analysis Dry [1, 7] | XRPD Analysis 40° C. 75% RH [1, 8] | XRPD Analysis Damp [1, 8] | XRPD Analysis Dry [1, 8]
A (evap.): XRPD Analysis Damp/Dry [2, 6]

O=C(O)CC(O)(CC(=O)O)C(=O)O [Citric acid, 1 equiv.]
PC, CI: XRPD Analysis Damp [2, 14] | XRPD Analysis Dry [2, 14]
A: XRPD Analysis 40° C. 75% RH [1, 9] | XRPD Analysis Damp [1, 9] | XRPD Analysis Dry [1, 9] | XRPD Analysis 40° C. 75% RH [1, 10] | XRPD Analysis Damp [1, 10] | XRPD Analysis Dry [1, 10] | XRPD Analysis 40° C. 75% RH ([1]; Citric acid, 1 equiv., Ethyl acetate, AS Heptane) | XRPD Analysis 40° C. 75% RH [1, 11] | XRPD Analysis Damp [1, 11] | XRPD Analysis Dry [1, 11] | XRPD Analysis 40° C. 75% RH [1, 12] | XRPD Analysis Damp [1, 12] | XRPD Analysis Dry [1, 12] | XRPD Analysis 40° C. 75% RH [1, 13] | XRPD Analysis Damp [1, 13] | XRPD Analysis Dry [1, 13]

O=C(O)C(O)C(O)C(=O)O [L-Tartaric acid, 1 equiv.]
PC, CI: XRPD Analysis Damp [2, 20] | XRPD Analysis Dry [2, 20]
A: XRPD Analysis 40° C. 75% RH [1, 15] | XRPD Analysis Damp [1, 15] | XRPD Analysis Dry [1, 15] | XRPD Analysis 40° C. 75% RH [1, 16] | XRPD Analysis Damp [1, 16] | XRPD Analysis Dry [1, 16] | XRPD Analysis 40° C. 75% RH ([1]; L-Tartaric acid, 1 equiv., Ethyl acetate, AS Heptane) | XRPD Analysis 40° C. 75% RH [1, 17] | XRPD Analysis Damp [1, 17] | XRPD Analysis Dry [1, 17] | XRPD Analysis 40° C. 75% RH [1, 18] | XRPD Analysis Damp [1, 18] | XRPD Analysis Dry [1, 18] | XRPD Analysis 40° C. 75% RH [1, 19] | XRPD Analysis Damp [1, 19] | XRPD Analysis Dry [1, 19]

O=C(O)/C=C\C(=O)O [Maleic acid, 1 equiv.]
A: XRPD Analysis 40° C. 75% RH [1, 21] | XRPD Analysis Damp [1, 21] | XRPD Analysis Dry [1, 21] | XRPD Analysis 40° C. 75% RH [1, 22] | XRPD Analysis Damp [1, 22] | XRPD Analysis Dry [1, 22] | XRPD Analysis 40° C. 75% RH [1, 23] | XRPD Analysis Damp [1, 23] | XRPD Analysis Dry [1, 23] | XRPD Analysis 40° C. 75% RH [1, 24] | XRPD Analysis 40° C. 75% RH [1, 25] | XRPD Analysis Damp [1, 25] | XRPD Analysis Dry [1, 25] | XRPD Analysis 40° C. 75% RH [1, 26] | XRPD Analysis Damp [1, 26] | XRPD Analysis Dry [1, 26]
A (evap.): XRPD Analysis Damp/Dry [2, 24]

CS(=O)(=O)O [Methanesulfonic acid, 1 equiv.]
A (evap.): XRPD Analysis Damp/Dry [2, 28] | XRPD Analysis Damp/Dry [2, 30]
A: XRPD Analysis 40° C. 75% RH [1, 27] | XRPD Analysis Damp [1, 27] | XRPD Analysis Dry [1, 27] | XRPD Analysis 40° C. 75% RH [1, 28] | XRPD Analysis 40° C. 75% RH [1, 29] | XRPD Analysis Damp [1, 29] | XRPD Analysis Dry [1, 29] | XRPD Analysis 40° C. 75% RH [1, 30] | XRPD Analysis 40° C. 75% RH [1, 31] | XRPD Analysis Damp [1, 31] | XRPD Analysis Dry [1, 31] | XRPD Analysis 40° C. 75% RH [1, 32] | XRPD Analysis Damp [1, 32] | XRPD Analysis Dry [1, 32]

CS(=O)(=O)O [Methanesulfonic acid, 2 equiv.]
A: XRPD Analysis 40° C. 75% RH [1, 33] | XRPD Analysis Damp [1, 33] | XRPD Analysis Dry [1, 33] | XRPD Analysis 40° C. 75% RH [1, 34] | XRPD Analysis Damp [1, 34] | XRPD Analysis Dry [1, 34] | XRPD Analysis 40° C. 75% RH [1, 35] | XRPD Analysis Damp [1, 35] | XRPD Analysis Dry [1, 35] | XRPD Analysis 40° C. 75% RH [1, 36] | XRPD Analysis 40° C. 75% RH [1, 37] | XRPD Analysis Damp [1, 37] | XRPD Analysis Dry [1, 37] | XRPD Analysis 40° C. 75% RH [1, 38] | XRPD Analysis Damp [1, 38] | XRPD Analysis Dry [1, 38]
A (evap.): XRPD Analysis Damp/Dry [2, 36]

Cc1ccc(S(=O)(=O)O)cc1 [p-Toluenesulfonic acid, 1 equiv.]
A (evap.): XRPD Analysis Damp/Dry [2, 40] | XRPD Analysis Damp/Dry [2, 42]
A: XRPD Analysis 40° C. 75% RH [1, 39] | XRPD Analysis Damp [1, 39] | XRPD Analysis Dry [1, 39] | XRPD Analysis 40° C. 75% RH [1, 40] | XRPD Analysis 40° C. 75% RH [1, 41] | XRPD Analysis Damp [1, 41] | XRPD Analysis Dry [1, 41] | XRPD Analysis 40° C. 75% RH [1, 42] | XRPD Analysis 40° C. 75% RH [1, 43] | XRPD Analysis Damp [1, 43] | XRPD Analysis Dry [1, 43] | XRPD Analysis 40° C. 75% RH [1, 44] | XRPD Analysis Damp [1, 44] | XRPD Analysis Dry [1, 44]
